Source: ChEMBL document CHEMBL1122521, “Nucleic acid related compounds. 47. Synthesis and biological activities of pyrimidine and purine "acyclic" nucleoside analogues” (J Med Chem, 1984)
Converted amounts (≈) assume the structure as drawn.

Test system: Vaccinia virus
Test: Concentration required to reduce cytopathogenicity of vaccinia virus by 50% in primary rabbit kidney (PRK) cells
Assay type: functional, Orthopoxvirus vaccinia

| Compound | ID50 |
| --- | --- |
| O=c1[nH]c(=O)n([C@H]2C[C@H](O)[C@@H](CO)O2)cc1/C=C/Br [BRIVUDINE] | 7 µg/mL (≈ 21 µM) |
| CC(=O)OCCOCn1cnc2c(Cl)ncnc21 | 20 µg/mL (≈ 73.9 µM) |
| Nc1ccn(COCCO)c(=O)n1 | >400 µg/mL |
| Nc1nc2c(nc(O)n2COCCO)c(=O)[nH]1 | >400 µg/mL |
| Nc1nc2c(nc(I)n2COCCO)c(=O)[nH]1 | >400 µg/mL |
| O=c1[nH]c(=O)n([C@H]2C[C@H](O)[C@@H](CO)O2)cc1I [IDOXURIDINE] | 0.2 µg/mL (≈ 0.565 µM) |
| Nc1nc(O)c2nc(N3CCCCC3)n(COCCO)c2n1 | >400 µg/mL |
| Cc1nc2c(O)nc(N)nc2n1COCCO | >400 µg/mL |
| Nc1nc(Cl)c2ncn(COCCO)c2n1 | 70 µg/mL (≈ 287 µM) |
| Nc1nc2c(nc(N)n2COCCO)c(=O)[nH]1 | >100 µg/mL |
| CN(C)c1nc2c(=O)[nH]c(N)nc2n1COCCO | >=300 ug ml-1 |
| Nc1nc2c(ncn2COCCO)c(=O)[nH]1 [ACYCLOVIR] | 50 µg/mL (≈ 222 µM) |
| Nc1ncnc2c1ncn2COCCO | 20 µg/mL (≈ 95.6 µM) |
| CNc1nc2c(=O)[nH]c(N)nc2n1COCCO | >400 µg/mL |
| Nc1nc2c(nc(Br)n2COCCO)c(=O)[nH]1 | >400 µg/mL |
| CC(=O)OCCOCn1cnc2c(Cl)nc(N)nc21 | 70 µg/mL (≈ 245 µM) |
